Kd and GI50 data for three compounds are collected here from patent US20230242544A1, “QUINAZOLINE COMPOUNDS, PREPARATION METHODS AND USES THEREOF” (INVENTISBIO CO., LTD., priority 2020, published 2023).

Broadly, the pKd is the negative decadic logarithm of the Kd, by convention in mol/L.

Each structure is given as a SMILES string. pKd: −log10 of the molar value. Bounds are passed on as bounds.

In assay [1] the target is recombinant human KRAS^G12D protein (Homo sapiens, UniProt P01116, G12D). The assay can be described thus: Temperature-dependent Fluorescence (TdF) KRAS G12D protein binding assay. The settings on record: 6 μM KRAS^G12D protein, 10 μM compound, Sypro Orange; Kd calculated from the fluorescent shift. Put shortly:
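Thermal-shift binding with Sypro Orange: 6 μM KRAS^G12D and 10 μM compound in 25 mM HEPES pH 7.5, 150 mM NaCl, 10 mM MgCl2, 1% DMSO. Binding read as ΔTm with versus without compound; Kd calculated from the degree of fluorescence shift.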

The next assay deals with Ba/F3_KRAS^G12D cells (Homo sapiens, UniProt P01116, G12D, cells depend on it). The experiment in a line: Ba/F3 KRAS G12D cell proliferation assay (CellTiter-Glo). The class given is cell-based. The settings on record: treated for 3 days, cell-titer Glo, cell growth inhibition, read-out: BaF3_KRAS^G12D IC50. In outline: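 KRAS G12D-transduced Ba/F3 cells, IL3-independent and puromycin-selected, seeded at 5×10^3/well overnight, then given serially diluted compound for 3 days. Proliferation read by CellTiter-Glo luminescence. IC50 from a four-parameter logistic fit with Hill slope.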
Ba/F3_KRAS^G12D cells, sequence (P01116 whole entry G12D): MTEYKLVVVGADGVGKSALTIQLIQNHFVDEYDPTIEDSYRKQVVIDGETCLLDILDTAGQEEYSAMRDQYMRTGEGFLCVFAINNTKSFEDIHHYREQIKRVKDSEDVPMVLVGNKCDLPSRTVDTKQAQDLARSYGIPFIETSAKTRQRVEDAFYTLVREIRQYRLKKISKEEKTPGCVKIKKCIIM

recombinant human KRAS^G12D protein, sequence (P01116 1-188 isoform P01116-2 G12D): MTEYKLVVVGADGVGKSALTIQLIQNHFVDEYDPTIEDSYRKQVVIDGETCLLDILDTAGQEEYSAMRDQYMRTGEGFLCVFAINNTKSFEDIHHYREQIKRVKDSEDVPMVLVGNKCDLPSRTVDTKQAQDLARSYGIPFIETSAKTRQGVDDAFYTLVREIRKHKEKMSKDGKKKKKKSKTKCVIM

Regarding `Oc1cc(-c2c(Cl)cc3c(N4CC5CCC(C4)N5)nc(OC[C@]45CCCN4C[C@@H](F)C5)nc3c2F)c2ccccc2c1` (single isomer, unassigned) [Compound 106], in assay [1], the pKd was > 6.30. The GI50 at Ba/F3_KRAS^G12D cells is < 500 nM.
Taken in the same sequence, the figures for `N#Cc1cc2c(N3CC4CCC(C3)N4)nc(OC[C@@]34CCCN3C[C@H](F)C4)nc2c(F)c1-c1cc(O)cc2ccccc12` [Compound 86] were > 6.30 and < 500 nM.
Regarding `CN(C)C1CCN(c2nc(N3CC4CCC(C3)N4)c3cc(Cl)c(-c4cc(O)cc5ccccc45)c(F)c3n2)C1` (stereo not drawn) [Compound 52], the pKd in assay [1] is < 5.30. The GI50 at Ba/F3_KRAS^G12D cells was 500 to 5000 nM.
